Reference: article PMC4081560 (PLoS ONE, 2014)
Several values for one entry are separate records, joined by “and”; a condition that tells them apart may be missing. Equal entries are not always repeated. Where two headings read alike, the source gives them in different places. Marks after values point to notes of the source that are not given here.

Assays:
Design in all cases: species or system DBA/2 mice
Settings in all cases: mouse, in vivo
[1] = test system: oseltamivir-resistant K/2785 virus
[2] = test system: oseltamivir-resistant K/2785 virus; remark: listed apart in the source
[3] = test system: oseltamivir-resistant K/2785 virus; remark: listed apart in the source

## CCC(CC)[C@H](NC(C)=O)[C@@H]1[C@H](O)[C@@H](C(=O)O)C[C@H]1N=C(N)N [Peramivir]
[1]
  Viral titers in lungs ± SD: 7.34±0.17 log10(PFU/ml/g) and 6.30±0.13 log10(PFU/ml/g) and 7.13±0.09 log10(PFU/ml/g) and 6.29±0.27 log10(PFU/ml/g) and 7.29±0.15 log10(PFU/ml/g) and 6.55±0.14 log10(PFU/ml/g)
[2]
  MDD ± SD (mean day of death prior to 14 dpi): 10.1 ± 1.1 days and 10.2 ± 0.4 days and 10.5 ± 2.1 days and 11.0 ± 1.4 days
  Survival/total: 0/7 (0.0%) and 1/7 (14.3%) and 5/7 (71.4%)*
[3]
  MDD ± SD: 9.8 ± 1.5 days and 10.1 ± 1.2 days and 10.6 ± 0.9 days
  Survival/total: 0/10 (00.0%) and 2/10 (20.0%) and 5/10 (50.0%)*
  Synergism (MacSynergy II): 0%

## NC(=O)c1nc(F)cnc1O [Favipiravir, 6-fluoro-3-hydroxy-2-pyrazinecarboxamide]
[1]
  Viral titers in lungs ± SD: 6.95±0.14 log10(PFU/ml/g) and 5.75±0.19 log10(PFU/ml/g) and 7.31±0.01 log10(PFU/ml/g) and 6.88±0.12 log10(PFU/ml/g)
[2]
  MDD ± SD (mean day of death prior to 14 dpi): 9.8 ± 0.8 days and 10.0 ± 0.0 days and 11 days
  Survival/total: 2/7 (28.6%) and 4/7 (57.1%) and 6/7 (85.7%)** and 7/7 (100.0%)***
  infected mice saved from death: more than 80%
[3]
  MDD ± SD: 10.6 ± 0.9 days and 10.7 ± 0.6 days and 9.4 ± 0.5 days
  Survival/total: 5/10 (50.0%)* and 8/10 (80.0%)*** and 3/10 (30.0%)
  Synergism (MacSynergy II): 0%
